Columns and labels:
mature NK cells = assay: 51Cr release assay of mature spleen NK cells treated with IL-2 and vitamin D3; assay type: cell-based; conditions: mature NK cells from wild type mouse spleen, vitamin D3 together with IL-2 for 24 hours (FIG. 17)
Protocol: FIG. 17 is a graph showing the cytotoxicity of mature NK cells, separated from spleen of a wild type mouse, and then treated with IL-2 and/or vitamin D3 for 24 hours, detected by ^51Cr release assay.
(§1) NK cells, differentiated in vitro or isolated from spleen, were treated with IL-2 (10 u/ml), followed by culture for 24 hours. After being washed, NK cells were plated, according to ratios of effector cells to target cells, into a 96 well plate (well round bottom plate, Falcon, USA) containing target cells (^51Cr-labeled Yac-1 cells, 10^4/well), followed by further culture for 4 hours. Upon completion of the culture, radioactivity of 100 ul of supernatant was measured by γ counter (FIG. 9).
Further, mature NK cells were isolated from spleen of a wild type mouse. The cells were treated with vitamin D3 together with IL-2 for 24 hours, followed by ^51Cr release assay (FIG. 17).

mouse HSCs = assay: NK cell differentiation from HSCs under vitamin D3 treatment, FACS analysis of NK1.1-positive cells; assay type: cell-based; conditions: vitamin D3 treated at each stage HSC to pNK to mNK; culture with OP9 and IL-15; FACS (FIG. 15)
Protocol: FIG. 15 is a set of graphs showing the result of FACS analysis with NK cell group positive for NK1.1. Vitamin D3 was treated during the whole procedure of differentiation from HSCs of a wild type mouse into mNK via pNK, which was progressed by the cell culture in the presence of OP9 and IL-15, resulting in the confirmation of NK cell group positive for NK1.1.
HSCs isolated from bone marrow in the above Example 1 were inoculated into 6-well plate (Falcon, USA) using a complete RPMI medium supplemented with mouse SCF (30 ng/ ? , BioSource, Camarillo, Calif.), mouse Flt3L (50 ng/ ? , PeproTech, Rocky Hill, N.J.), mouse IL-7 (0.5 ng/ ? , PeproTech), indomethacin (2 g/ ? , Sigma), gentamycin (20 g/ ? ) and 10% fetal bovine serum, at the concentration of 2×10^6 cells/well. The cells were cultured in a 37° C., 5% CO2 incubator for 6 days. […] The purity of the pNK cells was determined by FACS, confirming over 92% purity.
To generate mature NK cells (referred as “mNK cells” hereinafter), collected HSCs were cultured with or without OP9 stromal cells (Science, 265: 1098-1101, 1994) in the presence of mouse IL-15 (20 ng/ ? , PeproTech, USA). […] The purity of the mature NK cells was determined by flow cytometry (FACS) using anti-CD122, NK1.1, DX-5 and NK cell receptor antibodies. […]

Yac-1 = assay: 51Cr release assay of NK cells differentiated in vitro under vitamin D3; assay type: cell-based, mouse; conditions: 10 nM vitamin D3 during differentiation, compared with vitamin D3 non-treating group (FIG. 16)
Protocol: FIG. 16 is a graph showing the cytotoxicity, investigated by ^51Cr release assay, of NK cells for a target cell ‘Yac-1’ developed under the treatment of low concentration of vitamin D3 (10 nM). E/T means the ratio of effective cells to target cells.
as §1
To investigate the effect of vitamin D3, known to regulate VDUP1, on NK cell development, 1,25-dihydroxy vitamin D(3) was treated to each stage of differentiation from mouse HSCs into mNK cells via pNK. The cells were matured by the culture in the presence of OP9 and IL-15, then FACS analysis (FIG. 15) and ^51Cr release assay (FIG. 16) were performed.

C=C1/C(=C\C=C2/CCC[C@]3(C)[C@@H]([C@H](C)CCCC(C)(C)O)CC[C@@H]23)C[C@@H](O)C[C@@H]1O [vitamin D3, 1,25-dihydroxy vitamin D(3)]
NK mediated cytotoxicity (mature NK cells): increased | NK cell population (NK1.1 positive) (mouse HSCs): increased by vitamin D3 in a dose dependent manner | NK mediated cytotoxicity for Yac-1 (Yac-1): increased

Source: patent US20090042188A1, “Agent for Differentiating Hematopoietic Stem Cell Into Natural Killer Cell Comprising Vdup1 Protein or Gene Encoding the Same, and a Method of Differentiating Hematopoietic Stem Cell Into Natural Killer Cell Using Thereof” (Korea Research Institute of Bioscience and Biotechnology, priority 2005, published 2009)
